# Assays:
# glutathione = experiment: Production level of glutathione in NHEK cells; type: cell-based, human; conditions: 24 h, control = 100%
# Method: Continuously-cultivated NHEK cells in EpiLife medium were collected, resuspended in EpiLife medium, inoculated to culture plates with 10 cm in diameter in an amount of 1×10^6 cells/10 mL/plate, and cultured for 24 hours. Thereafter, each culture supernatant was removed by sucking, and any of the test solutions was added to the remaining cells in a volume of 10 mL/plate, followed by culturing the cells for another 24 hours. As a control, cells were added with only D-MEM medium in an amount of 10 mL/plate and cultured for 24 hours. Each culture supernatant was removed from each plate, then ice-chilled Dulbecco's PBS (−), commercialized by Nissui Pharmaceutical Co., Ltd., Tokyo, Japan, was added to rinse the remaining cells, which were then collected with a scraper. Glutathione was quantified on “Glutathione Assay Kit”, a product name of glutathione assay kit commercialzied by BioVision, Inc., San Francisco, USA. In this experiment, the control and test solutions in respective three plates were assayed for glutathione production level for each plate and averaged for obtaining the glutathione production level of each solution. A 5% v/v CO2 incubator was used for culturing NHEK cells in any case. Relative values of test samples were determined with the proviso that the production levels of reduced glutathione and total glutathione in NHEK cells that had been cultured with only EpiLife medium were respectively regarded as 100%, and the results are in Table 5.
# occludin = experiment: TJ-related protein occludin in NHEK cells (Western); type: cell-based, human; conditions: 3 days, CaCl2 positive control = 100%, no addition 63%
# Method: The following experiment was conducted to examine the effect of ascorbic acid 2-glucoside on the production of TJ-related proteins that constitute cell-cell adhesion structures by focusing on occludin and ZO-1 that are focused on as TJ-related proteins known to exist in a granular layer of epidermis: As a model for typical normal human epidermal cells, NHEK cells were suspended in EpiLife medium (pH 7.4); inoculated to 12-well microplates at a cell density of 1×10^5 cells/well; cultured overnight under the conditions of 37° C. and 5% v/v CO2; and further cultured for three days under the conditions of 37° C. and 5% v/v CO2 after adding either CaCl2 as a positive control to each well to give a final concentration of 0.5 mM, or “AA2G”, a product name of a particulate composition containing anhydrous crystalline ascorbic acid 2-glucoside, commercialized by Hayashibara Co., Ltd., Okayama, Japan, to give a final concentration of 0.5 or 1 mM. […] A sample of 20 μg protein for each lane per each cell extract in respective wells was applied to sodium dodecyl sulfate polyacrylamide gel electrophoresis (SDS-PAGE) with 10% w/v SDS containing DTT, followed by assaying the concentration of occludin or ZO-1 in each cell extract with “Luminate Western HRP Substrates”, a product name of a premixed, ready-to-use chemiluminescent detection reagent using an internal standard “α-Tubulin”, commercialized by Merck KGaA, Darmstadt, Germany, wherein there were used “F-11”, a product name of an anti-occludin mouse monoclonal antibody, commercialized by Santa Cruz Biotechnology, Inc., Texas, USA, or “ZO1-1A12”, a product name of a ZO-1 mouse monoclonal antibody, commercialized by Invitrogen Corporation, Calif., USA, was used as a first antibody; and “PO447”, a product name of a horseradish peroxidase (HRPO) labeled anti-mouse IgG, commercialized by DAKO Japan Inc., Tokyo, Japan, or “PO448”, a product name of an HRPO-labeled anti-rabbit IgG, commercialized by DAKO Japan Inc., Tokyo, Japan, as a secondary antibody. […]
# cornified envelope (CE) = experiment: Production of cornified envelope (CE) in NHEK cells; type: cell-based, human; conditions: 5 days, control 0.63 ± 0.07
# Method: The following experiment was conducted to examine the effect of ascorbic acid 2-glucoside on the production of CE in a keratinous layer. As a model for typical normal human epidermal cells, normal human epidermal keratinocytes from neonatal foreskin, commercialized by Kurabo Industries Ltd., Osaka, Japan, and abbreviated as “NHEK cells”, hereinafter, were suspended in EpiLife medium (pH 7.4), commercialized by Invitrogen Corporation, Calif., USA, and called “EpiLife medium”, hereinafter, inoculated to 12-well microplates at a cell density of 1×10^5 cells/well, and cultured under the conditions of 37° C. and 5% v/v CO2 overnight. Thereafter, “AA2G”, a product name of a particulate composition containing anhydrous crystalline ascorbic acid 2-glucoside, commercialized by Hayashibara Co., Ltd., Okayama, Japan, was added to each well to give a final concentration of 0.5 or 1 mM, or, as a positive control, CaCl2 was added to each well to give a final concentration of 1 mM; and the cells in each well were cultured at 37° C. for five days while replacing the medium in each well with a fresh preparation of EpiLife medium having the above-identified concentration of ascorbic acid 2-glucoside or CaCl2. Assay for intracellular CE content was carried out in accordance with Tatsuya Hasegawa et al., “Lipids”, Vol. 46, pp. 529 to 535, 2011. After completion of the culture, the culture supernatant in each well was immediately removed, followed by detaching and extracting the cells adhered to the wall of each well by means of pipetting with phosphate buffered saline (PBS, pH 7.4) containing 2% w/v sodium dodecyl sulfate (SDS), and collecting insoluble fractions by centrifugation at 15,000 rpm for 10 min. […] The measured values were regarded as CE production levels. […]
# [1] = pH of aqueous solutions of compositions; type: physicochemical; conditions: 2 g (d.s.b.) dissolved in 20 mL refined water; ratio by mass (anhydrous crystalline sodium salt):(anhydrous crystal)
structure (smiles),measurement,setting,value
"O=C1O[C@H]([C@@H](O)CO)C(O)=C1O[C@H]1O[C@H](CO)[C@@H](O)[C@H](O)[C@H]1O [ascorbic acid 2-glucoside, 2-O-α-D-glucosyl-L-ascorbic acid]",Reduced glutathione,glutathione; 0.5 mM,106%
same,Total glutathione,glutathione; 0.5 mM,106%
same,Reduced glutathione,glutathione; 1.0 mM,111%
same,Total glutathione,glutathione; 1.0 mM,111%
same,Reduced glutathione,glutathione; 2.0 mM,117%
same,Total glutathione,glutathione; 2.0 mM,117%
same,Occludin concentration in cell extract,occludin; 0.5 mM,78%
same,Occludin concentration in cell extract,occludin; 1 mM,85%
same,OD310nm Value (CE Production level),cornified envelope (CE); 0.5 mM,0.78 ± 0.05
same,OD310nm Value (CE Production level),cornified envelope (CE); 1 mM,1.04 ± 0.11
same,pH,[1],1.7

# — patent US10111822B2, “External dermal composition for anti-ageing and method for producing the same” (Hayashibara Co., Ltd., priority 2012, dated 2018)
